Measured values as given in ChEMBL document CHEMBL1121424, “Orally active cephalosporins and penicillins” (J Med Chem, 1980).
In brackets after ≈: the same amount, converted by molar mass.

Tests used:
[1] = test system: Streptococcus pneumoniae; test: Tested for inhibition of visible growth of Streptococcus pneumoniae; assay type: functional
[2] = Tested for inhibition of visible growth of Salmonella schottmuelleri; assay type: functional
[3] = test system: Enterococcus faecalis; test: Tested for inhibition of visible growth of Streptococcus faecalis; assay type: functional
[4] = test system: Proteus mirabilis; test: Tested for inhibition of visible growth of Proteus mirabilis; assay type: functional
[5] = test system: Streptococcus pneumoniae; test: (§1) Tested for the antimicrobial activity against Streptococcus pneumoniae in mice; assay type: functional
[6] = (§2) Tested for the antimicrobial activity against Salmonella schottmuelleri in mice; assay type: functional
[7] = test system: Streptococcus pyogenes; test: (§3) Tested for the antimicrobial activity against Streptococcus pyogenes in mice; assay type: functional
[8] = test system: Staphylococcus aureus; test: Tested for inhibition of visible growth of Staphylococcus aureus; assay type: functional
[9] = test system: Staphylococcus aureus; test: Tested for inhibition of visible growth of Staphylococcus aureus, benzyl-penicillin sensitive; assay type: functional
[10] = test system: Klebsiella pneumoniae; test: Tested for inhibition of visible growth of Klebsiella pneumoniae; assay type: functional
[11] = test system: Klebsiella aerogenes; test: Tested for inhibition of visible growth of Enterobacter aerogenes; assay type: functional
[12] = test system: Escherichia coli; test: Tested for inhibition of visible growth of Escherichia coli; assay type: functional
[13] = test system: Streptococcus pyogenes; test: Tested for inhibition of visible growth of Streptococcus pyogenes; assay type: functional
[14] = test system: Staphylococcus aureus; test: Tested for the antimicrobial activity against Staphylococcus aureus, benzyl-penicillin sensitive in mice, perorally; assay type: functional; conditions: po
[15] = test system: Enterobacter cloacae; test: Tested for inhibition of visible growth of Enterobacter cloacae; assay type: functional
[16] = test system: Streptococcus pyogenes; test: as §3; assay type: functional; remark: listed apart in the source
[17] = test system: Staphylococcus aureus; test: Tested for the antimicrobial activity against Staphylococcus aureus; assay type: functional
[18] = as §2; assay type: functional; remark: listed apart in the source
[19] = test system: Streptococcus pneumoniae; test: as §1; assay type: functional; remark: listed apart in the source
[20] = test system: Escherichia coli; test: Tested for the antimicrobial activity against Escherichia coli in mice perorally; assay type: functional; conditions: po
[21] = test system: Escherichia coli; test: Tested for the antimicrobial activity against Escherichia coli in mice; assay type: functional
[22] = test system: Mus musculus; test: Tested for the antimicrobial activity against Streptococcus pyogenes (St141) in mice, subcutaneously; assay type: functional; conditions: sc
[23] = organism: Mus musculus; test: Tested for the antimicrobial activity against Streptococcus pyogenes (St141) in mice, perorally; assay type: functional; conditions: po
[24] = test system: Mus musculus; test: Tested for the antimicrobial activity against Staphylococcus aureus (M240) in mice, subcutaneously; assay type: functional; conditions: sc
[25] = organism: Mus musculus; test: Tested for the antimicrobial activity against Streptococcus pyogenes (ST139) in mice, perorally; assay type: functional; conditions: po
[26] = test system: Mus musculus; test: Tested for the antimicrobial activity against Staphylococcus aureus (M202) in mice, subcutaneously; assay type: functional; conditions: sc
[27] = test system: Mus musculus; test: Tested for the antimicrobial activity against Streptococcus pneumoniae (D815) in mice, subcutaneously; assay type: functional; conditions: sc
[28] = test system: Mus musculus; test: Tested for the antimicrobial activity against Streptococcus pneumoniae (D137) in mice, subcutaneously; assay type: functional; conditions: sc
[29] = test system: Pseudomonas aeruginosa; test: Tested for inhibition of visible growth of Pseudomonas aeruginosa; assay type: functional
[30] = organism: Mus musculus; test: Tested for the antimicrobial activity against Staphylococcus aureus (M240) in mice, perorally; assay type: functional; conditions: po
[31] = organism: Mus musculus; test: Tested for the antimicrobial activity against Streptococcus pneumoniae (D815) in mice, perorally; assay type: functional; conditions: po
[32] = test system: Mus musculus; test: Tested for the antimicrobial activity against Streptococcus pyogenes (ST139) in mice, subcutaneously; assay type: functional; conditions: sc
[33] = organism: Mus musculus; test: Tested for the antimicrobial activity against Streptococcus pneumoniae (D137) in mice, perorally; assay type: functional; conditions: po
[34] = organism: Mus musculus; test: Tested for the antimicrobial activity against Staphylococcus aureus (M202) in mice, perorally; assay type: functional; conditions: po
[35] = in vivo; conditions: mouse, po, 43 mg/kg
Description: Tested for the peak time in mice following 43 mg/kg oral dose of cephalosporin

| Compound | MIC [1] [µg/mL] | MIC [2] [µg/mL] | MIC [3] [µg/mL] | MIC [4] [µg/mL] | MIC [8] [µg/mL] | MIC [9] [µg/mL] | MIC [10] [µg/mL] | MIC [11] [µg/mL] | MIC [12] [µg/mL] | MIC [13] [µg/mL] | MIC [15] [µg/mL] | MIC [29] [µg/mL] | other results |
| --- | --- | --- | --- | --- | --- | --- | --- | --- | --- | --- | --- | --- | --- |
| Cc1nnc(SCC2=C(C(=O)O)N3C(=O)C(NC(=O)[C@H](N)c4ccc5c(c4)CCO5)C3SC2)s1 (stereo partly specified) | ≤ 0.03 | 6.2 (≈ 11.9 µM) | 100 (≈ 192 µM) | > 100 | 3.1 (≈ 5.97 µM) | 0.8 (≈ 1.54 µM) | 6.2 (≈ 11.9 µM) | 25 (≈ 48.1 µM) | 12.5 (≈ 24.1 µM) | 0.05 (≈ 0.0962 µM) | > 100 |  | ED50 [5]: 0.89 mg/kg; ED50 [6]: 23 mg/kg; ED50 [7]: 0.44 mg/kg; ED50 [14]: 1.8 mg/kg; ED50 [16]: 0.78 mg/kg; ED50 [17]: 0.88 mg/kg; ED50 [18]: 31 mg/kg; ED50 [19]: 1.6 mg/kg; ED50 [20]: 20 mg/kg; ED50 [21]: 9.3 mg/kg |
| CC1(C)SC2C(NC(=O)[C@H](N)c3ccc4c(c3)CCO4)C(=O)N2C1C(=O)O (stereo partly specified) | ≤ 0.03 | 1.6 (≈ 4.09 µM) | 3.1 (≈ 7.92 µM) | 12.5 (≈ 31.9 µM) | 100 (≈ 255 µM) | 0.05 (≈ 0.128 µM) | 6.2 (≈ 15.8 µM) | > 100 | 25 (≈ 63.9 µM) | ≤ 0.03 | > 100 | > 100 | ED50 [22]: 0.07 mg/kg; ED50 [23]: 0.11 mg/kg; ED50 [24]: 0.063 mg/kg; ED50 [25]: 0.084 mg/kg; ED50 [26]: 0.89 mg/kg; ED50 [27]: 0.078 mg/kg; ED50 [28]: 0.14 mg/kg; ED50 [30]: 0.4 mg/kg; ED50 [31]: 0.16 mg/kg; ED50 [32]: 0.053 mg/kg; ED50 [33]: 0.22 mg/kg; ED50 [34]: 0.41 mg/kg |
| CC1(C)SC2C(NC(=O)C(C(=O)O)c3ccc4c(c3)OCO4)C(=O)N2C1C(=O)O (racemic) | 0.2 (≈ 0.473 µM) | 50 (≈ 118 µM) | > 100 | 3.1 (≈ 7.34 µM) | 12.5 (≈ 29.6 µM) | 0.8 (≈ 1.89 µM) | 100 (≈ 237 µM) | 50 (≈ 118 µM) | 50 (≈ 118 µM) | 0.8 (≈ 1.89 µM) | 100 (≈ 237 µM) | 3.1 (≈ 7.34 µM) |  |
| CC1(C)S[C@@H]2[C@H](NC(=O)[C@H](N)c3ccc(O)cc3)C(=O)N2[C@H]1C(=O)O [AMOXICILLIN] | ≤ 0.03 | 0.4 (≈ 1.09 µM) | 1.6 (≈ 4.38 µM) | 0.4 (≈ 1.09 µM) | 100 (≈ 274 µM) | 0.1 (≈ 0.274 µM) | 0.8 (≈ 2.19 µM) | > 100 | 6.2 (≈ 17 µM) | ≤ 0.03 | > 100 | > 100 | ED50 [22]: 0.06 mg/kg; ED50 [23]: 0.08 mg/kg; ED50 [24]: 0.074 mg/kg; ED50 [25]: 0.073 mg/kg; ED50 [26]: 0.62 mg/kg; ED50 [27]: 0.05 mg/kg; ED50 [28]: 0.14 mg/kg; ED50 [30]: 0.31 mg/kg; ED50 [31]: 0.13 mg/kg; ED50 [32]: 0.063 mg/kg; ED50 [33]: 0.25 mg/kg; ED50 [34]: 0.62 mg/kg |
| CC1(C)S[C@@H]2[C@H](NC(=O)C(C(=O)O)c3ccccc3)C(=O)N2[C@H]1C(=O)O (stereo partly specified) [CARBENICILLIN] | 0.4 (≈ 1.06 µM) | 6.2 (≈ 16.4 µM) | > 100 | 0.8 (≈ 2.11 µM) | 25 (≈ 66.1 µM) | 0.4 (≈ 1.06 µM) | 6.2 (≈ 16.4 µM) | 6.2 (≈ 16.4 µM) | 6.2 (≈ 16.4 µM) | 0.1 (≈ 0.264 µM) | 6.2 (≈ 16.4 µM) | 0.8 (≈ 2.11 µM) |  |
| CC1=C(C(=O)O)N2C(=O)[C@@H](NC(=O)[C@H](N)c3ccccc3)[C@H]2SC1 [CEPHALEXIN ANHYDROUS] | 1.6 (≈ 4.61 µM) | 3.1 (≈ 8.92 µM) | ≥ 100 | 12.5 (≈ 36 µM) | 3.1 (≈ 8.92 µM) | 0.8 (≈ 2.3 µM) | 3.1 (≈ 8.92 µM) | 25 (≈ 72 µM) | 6.2 (≈ 17.8 µM) | 0.4 (≈ 1.15 µM) | 25 (≈ 72 µM) |  | Tmax [35]: 15 min |
| CC(=O)OCC1=C(C(=O)O)N2C(=O)[C@@H](NC(=O)Cc3cccs3)[C@H]2SC1 [CEPHALOTHIN] | 0.1 (≈ 0.252 µM) | 3.1 (≈ 7.82 µM) | 100 (≈ 252 µM) | 12.5 (≈ 31.5 µM) | 0.8 (≈ 2.02 µM) | 0.2 (≈ 0.504 µM) | 3.1 (≈ 7.82 µM) | 100 (≈ 252 µM) | 12.5 (≈ 31.5 µM) | 0.1 (≈ 0.252 µM) | > 100 |  |  |
